# Where “and” joins values, the source holds several entries; their conditions need not be identical. Equal entries are not always repeated.
# How the values were obtained:
# [1] = system: Male Rj: NMRI mice; assay: Formalin paw test (late phase) in the mouse; format: in vivo
# Procedure, shortened: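 Male NMRI mice received an intraplantar injection of 5% formalin (25 μl) into the left hind paw. Licking of the injected paw was scored at 1-min intervals from 15 to 50 min, blind, with 10 mice per group. Treated groups were compared with vehicle by Mann-Whitney U test; gabapentin 100 mg/kg i.p. served as reference.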
# [2] = system: Sprague-Dawley rats; assay: Kainic acid induced seizures in rats; format: in vivo, rat; design: key to Seizures Severity Mean ± SD (grade 0 to IV): seizure grade 0 = no response to IV = status epilepticus
# [3] = system: adult mice (C57/B16); assay: Mesial temporal lobe epilepsy model (mice), hippocampal discharges; format: in vivo, mouse
# Protocol: Antiepileptic protocol: Up to eight adult mice (C57/B16) are injected with kainate (1 nmol in 50 nl) and are implanted with a bipolar electrode in the dorsal hippocampus using stereotaxic techniques under general anesthesia. […] Drug conditions are counter-balanced, the animals being used as their own controls. Digital EEG recordings are performed in freely moving animals for 20 min pre-injection and 80 min post-injection. The effects of the injected compound are compared versus vehicle injections and reference period (pre-dose). Upon completion of the experiment, standard histological analysis are performed to verify electrode location, cell losses in CA1, CA3 and hilus, as well as dentate gyrus dispersion. Only animals with all characteristics of MTLE are used in data analysis. […] The results below are normalized to the pre-dose condition for each of the treatment group including DMSO and saline vehicle controls. Doses of test article compounds were 50 mg/kg for NTP-2014 and NTP-2026 and 150 mg/kg for NTP-2024, NTP-2006, NTP-1007, and NTP-1003. Therefore the bumetanide, furosemide, piretanide, azosemide, and torsemide esters and amide analogs described herein may be used in therapeutic methods to treat seizures.
# [4] = Blood levels in rat following IP administration; format: in vivo; conditions: for Concentration of NTP-2000 (bumetanide) in rat blood: after NTP-2024 100 mg/kg IP
# [5] = system: primate; assay: Acute primate seizure models; conditions: in vivo
# Text: FIG. 13 depicts epileptiform spikes and bursts generated using software for the automatic quantification epileptiform activity. FIG. 13A depicts after-discharge activity that was elicited by 4 seconds of electrical stimulation to primate sensory cortex. The software developed by Haglund and Hochman (2007) finds the envelope around a burst of spikes and calculates the duration of the burst, the number of spikes within the burst, and the average spike amplitude of all spikes comprising the burst.
# FIG. 13B depicts a typical spike generated by an acute bicuculline focus in primate motor cortex. The bicuculline model generates epileptiform activity that is similar to spontaneous interictal spiking in human subjects. Analysis of the data by the software identifies the time of occurrence of each spike and its peak-to-peak amplitude. This software can automatically process entire data sets consisting of hours of recorded data from multiple traces and generate an output of the data. Statistical analysis of data sets from multiple experiments can then be used to analyze the effects of various treatments (e.g., compounds that suppress epliptiform activity). See Haglund and Hochman (2007) “Imaging of Intrinsic Optical Signals in Primate Cortex during Epileptiform Activity.” Epilepsia 48(Suppl. 4): 65-74; See also Haglund and Hochman (Feb. 23, 2005) J. Neurophysiol. 94: 907-918.
# [6] = Solubility in dosing vehicle (0.2% HPMC in physiological saline); format: physicochemical; conditions: NTP-2024: 180 mg/kg or 18 mg/ml; NTP-2026: 100 mg/kg or 10 mg/ml
# [7] = 20 μmoles/kg IP, vs DMSO control
# [8] = kainic acid 15 mg/kg, rat, 20 μmoles/kg (bumetanide 7.3 mg/kg i.p.)
# [9] = 50 mg/kg for NTP-2014 and NTP-2026, 150 mg/kg for NTP-2024, NTP-2006, NTP-1007, NTP-1003
smiles,measurement,setting,value
"CCCCNc1cc(C(=O)NN2CCOCC2)cc(S(N)(=O)=O)c1Oc1ccccc1 [NTP-2024, N-Morpholinyl 3-Aminosulfonyl-5-N-butylamino-4-phenoxybenzamide]",Licking Score % Pain Decrease,[1]; 50 μmol/kg i.p.,1%
same,Licking Score % Pain Decrease,[1]; 250 μmol/kg i.p.,51%
same,Licking Score % Pain Decrease,[1]; 500 μmol/kg i.p.,41%
same,Anti-inflammatory and analgesic effects in formalin paw test (FIG. 16),"[1]; 50, 250, 500 μmole/kg",show anti-inflammatory and analgesic effects
same,"Decrease in pain, Formalin Paw Test (Mice) - Late Phase","[1]; at 250, 500 μmol/kg","Significant decrease in pain at 250 (p < 0.01), 500"
same,Licking Score (15 to 50 minutes post-formalin injection) % Change from Control,"[1]; i.p. 30 minutes before the test, 50 μmol/kg (NTP-2006 23.9, NTP-2024 21.7, NTP-1007 19.3, NTP-2014 21, NTP-2026 23.1 mg/kg)",−1%
same,Licking Score (15 to 50 minutes post-formalin injection) % Change from Control,"[1]; i.p., 250 μmol/kg (NTP-2006 119, NTP-2024 108, NTP-1007 96.5, NTP-2014 105, NTP-2026 116 mg/kg)",−51%
same,Licking Score (15 to 50 minutes post-formalin injection) % Change from Control,"[1]; i.p., 500 μmol/kg (NTP-2006 239, NTP-2024 217, NTP-1007 193, NTP-2014 210, NTP-2026 231 mg/kg)",−41%
same,Antinociception compared to gabapentin (584 μmol/kg; 100 mg/kg),"[1]; late phase, at highest two doses (NTP-2014, NTP-2024) or highest dose (NTP-2026, Bumetanide)","(p < 0.05) μmol/kg; 108, 217 mg/kg; slightly less"
same,Percent reduction in Seizures,[2]; [7],−88.9%
same,Percent reduction in Seizures Severity,[2]; [7],−95.8%
same,Seizures Severity Mean ± SD (grade 0 to IV),"[2]; KA 15 mg/kg i.p., 20 μmoles/kg IP",0.1000 ± 0.3162
same,"Seizures Mean ± SD (1 = yes, 0 = no)","[2]; KA 15 mg/kg i.p., 20 μmoles/kg IP, 2 hours",0.1000 ± 0.3162
same,Reduction in seizure severity / seizure score,[2]; [8],96% reduction in
same,Reduction in seizures / seizure activity,[2]; [8],89% reduction in
same,Cumulative duration of hippocampal discharges,[3]; [9],decreased
same,Number of hippocampal discharges,[3]; [9],decreased
same,Significant decrease in cumulative duration of and total number of hippocampal discharges,"[3]; dose-response study, mice",Dose-response relationship
same,Concentration of NTP-2024 in rat blood,"[4]; NTP-2024 100 mg/kg IP, PBx pretreated, 15 m",3939.86 ng/mL and 4358.32 ng/mL and 6418.34 ng/mL
same,Concentration of NTP-2000 (bumetanide) in rat blood,"[4]; PBx pretreated, 5 m",4.155 ng/mL and 3.804 ng/mL and 3.493 ng/mL
same,Concentration of NTP-2000 (bumetanide) in rat blood,"[4]; PBx pretreated, 30 m",13.3456 ng/mL and 10.0076 ng/mL and 8.433 ng/mL
same,Concentration of NTP-2000 (bumetanide) in rat blood,"[4]; PBx pretreated, 1 h",12.2513 ng/mL and 9.158 ng/mL and 8.065 ng/mL
same,Concentration of NTP-2000 (bumetanide) in rat blood,"[4]; PBx pretreated, 2 h",15.0994 ng/mL and 8.16 ng/mL and 8.949 ng/mL
same,Degradation to bumetanide in the blood,"[4]; i.p., rats",does not readily degrade to bumetanide
same,Concentrations in blood and in brain tissue,[4]; rats pretreated with inhibitor,Rats pretreated with inhibitor demonstrated high concentrations
same,Suppression of epileptiform activity,[5],efficacious in suppressing epileptiform activity
same,Solubility issues at the highest dose tested,[6],Mild solubility issues
